The assay has as its target Serine/threonine-protein phosphatase PP1-alpha catalytic subunit (Homo sapiens) (UniProt P62136). Put plainly: PP1 inhibitors, OMFP dephosphorylation, confirmation, biochemical, fluorescence, OMFP substrate, powder samples, set 2 (AID 652218). The conditions noted are these: purified PP1alpha, at 50 µM, hits give high values.

Calls of active or inactive are those of the source.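 How the source made its calls: active means inhibition of the phosphatase PP1 of at least 70% at 50 µM; inactive means the rest.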

Sequence of Serine/threonine-protein phosphatase PP1-alpha catalytic subunit (Homo sapiens) (P62136 whole entry, looked up): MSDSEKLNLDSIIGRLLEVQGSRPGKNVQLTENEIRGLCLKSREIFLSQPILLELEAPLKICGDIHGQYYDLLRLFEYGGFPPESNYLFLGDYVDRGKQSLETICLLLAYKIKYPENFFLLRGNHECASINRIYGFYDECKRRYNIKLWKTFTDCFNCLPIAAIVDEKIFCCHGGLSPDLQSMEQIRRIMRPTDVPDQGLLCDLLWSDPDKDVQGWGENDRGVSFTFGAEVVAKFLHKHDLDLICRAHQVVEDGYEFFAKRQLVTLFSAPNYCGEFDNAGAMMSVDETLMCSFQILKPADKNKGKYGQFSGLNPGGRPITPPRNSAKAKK

For the compound `CN1CCN(C(c2ccccc2)c2cc(Cl)c3cccnc3c2O)CC1` (stereo unspecified), the inhibition is 79.1%.

For the compound `Oc1c(C(c2ccccn2)N2CCCC2)ccc2cccnc12` (stereo unspecified), the inhibition was 107%.

On to `COCOc1c(C(c2ccccn2)N2CCN(C)CC2)ccc2cccnc12` (stereo unspecified), for which the inhibition was 66.1% (inactive).

On to `CN1CCN(C(c2ccc3cccnc3c2O)c2ncccc2C(F)(F)F)CC1` (stereo unspecified), for which the inhibition is 102%.

Take `CN1CCN(C(c2ccccn2)c2cc(Cl)c3cccnc3c2O)CC1` (stereo unspecified): the inhibition was 98.4%.

In the case of `Cc1ccc2ccc(C(c3ccccn3)N3CCN(C)CC3)c(O)c2n1` (stereo unspecified), the inhibition was 101%.

On to `Cc1ccnc(C(c2ccc3cccnc3c2O)N2CCN(C)CC2)c1` (stereo unspecified), for which the inhibition was 104%.

Consider `Oc1c(Cc2ccccn2)ccc2cccnc12`, for which the inhibition was 102%.

Take `CN1CCN(C(c2ccncc2)c2cc(Cl)c3cccnc3c2O)CC1` (stereo unspecified): the inhibition was 45% (inactive).

Turning to `Cc1ccc(C(c2ccc3cccnc3c2O)N2CCN(C)CC2)nc1` (stereo unspecified), the inhibition was 104%.

Regarding `CN1CCN(C(c2ccc(C(F)(F)F)cn2)c2ccc3cccnc3c2O)CC1` (stereo unspecified), the inhibition was 99.8%.

Consider `Oc1c(C(NC2CCCCC2)c2ccccn2)ccc2cccnc12` (stereo unspecified), for which the inhibition is 106%.

Consider `COc1cccc(C(c2ccc3cccnc3c2O)N2CCN(C)CC2)n1` (stereo unspecified), for which the inhibition was 107%.

Take `COc1ccnc(C(c2ccc3cccnc3c2O)N2CCN(C)CC2)c1` (stereo unspecified): the inhibition is 104%.

In the case of `Oc1c(CN2CCN(c3ccccc3)CC2)cc(Cl)c2cccnc12`, the inhibition was 100%.

`Oc1c(CN2CCN(c3ccccn3)CC2)cc(Cl)c2cccnc12`: the inhibition is 102%.

With `CN1CCN(C(c2nccs2)c2cc(Cl)c3cccnc3c2O)CC1` (stereo unspecified), the inhibition was 103%.

For `Oc1c(C(c2ccccn2)N2CCOCC2)cc(Cl)c2cccnc12` (stereo unspecified), the inhibition is 105%.

As for `Oc1c(C(c2ccccn2)N2CCNCC2)cc(Cl)c2cccnc12` (stereo unspecified), the inhibition is 83.5%.

As to `CN1CCN(C(c2cccnc2)c2cc(Cl)c3cccnc3c2O)CC1` (stereo unspecified), the inhibition is 40% (inactive).

Turning to `CN1CCN(Cc2cc(Cl)c3cccnc3c2O)CC1`, the inhibition was 73.1%.

Take `Cc1cccc(C(c2ccc3cccnc3c2O)N2CCN(C)CC2)n1` (stereo unspecified): the inhibition was 103%.

`CC1CCN(C(c2ccccn2)c2cc(Cl)c3cccnc3c2O)CC1` (stereo unspecified): the inhibition was 104%.

Turning to `COc1ccc(C(c2ccc3cccnc3c2O)N2CCN(C)CC2)nc1` (stereo unspecified), the inhibition was 97.9%.

In the case of `Cc1cccnc1C(c1ccc2cccnc2c1O)N1CCN(C)CC1` (stereo unspecified), the inhibition was 99.9%.

As to `CN1CCC(NC(c2ccccn2)c2ccc3cccnc3c2O)CC1` (stereo unspecified), the inhibition was 97.3%.

In the case of `Oc1c(C(c2ccccn2)N2CCC(Cc3ccccc3)CC2)cc(Cl)c2cccnc12` (stereo unspecified), the inhibition is 89.3%.

On to `CN1CCN(C(c2cccs2)c2cc(Cl)c3cccnc3c2O)CC1` (stereo unspecified), for which the inhibition was 88.6%.

Take `CN1CCN(C(c2ncccn2)c2ccc3cccnc3c2O)CC1` (stereo unspecified): the inhibition is 93.8%.

In the case of `CC(C)(C)OC(=O)N1CCN(C(c2ccccn2)c2cc(Cl)c3cccnc3c2O)CC1` (stereo unspecified), the inhibition was 90.5%.

Take `CN1CCN(C(c2ccccn2)c2cc(Cl)c3ccccc3c2O)CC1` (stereo unspecified): the inhibition was 27.2% (inactive).

For the compound `Oc1c(C(c2ccccn2)N2CCN(c3ccccc3F)CC2)cc(Cl)c2cccnc12` (stereo unspecified), the inhibition is 101%.

Regarding `CN1CCN(C(c2ccccn2)c2cc(Cl)ccc2O)CC1` (stereo unspecified), the inhibition was 6.19% (inactive).

For the compound `CCN1CCN(C(c2ccccn2)c2cc(Cl)c3cccnc3c2O)CC1` (stereo unspecified), the inhibition is 98.4%.

As for `CN1CCN(C(c2ccccn2)c2ccc3cccnc3c2O)CC1` (stereo unspecified), the inhibition was 100%.

`CCOC(c1ccccn1)c1cc(Cl)c2cccnc2c1O` (stereo unspecified): the inhibition was 99%.

Values taken from PubChem BioAssay AID652218 (The Scripps Research Institute Molecular Screening Center, 2013).
